Experiments:
LNCaP cells = assay: Cellular uptake and distribution (surface-bound, internalized) in LNCaP cells; format: cell-based; settings: 1 h, 37°C
Protocol: The lipophilicity of [^61Cu]Cu-DOTAGA-PSMA-I&T and [^61Cu]Cu-NODAGA-PSMA-I&T was assessed by determining the distribution coefficient in a 1:1 mixture of 1-octanol–to–phosphate-buffered saline at pH 7.4, in comparison with all reference radiotracers. Inhibitory concentration of 50% (IC50) was assessed by competition binding on lymph node carcinoma of the prostate (LNCaP) using ((S)-1-carboxy-5-(4-(-^125I-iodo-benzamido)pentyl)carbamoyl)-L-glutamic acid as the reference radioligand. Cellular uptake and distribution were assessed in LNCaP cells at 5, 15, 30, 60, and 120 min after exposure to the radioligand at 37°C, either alone or in the presence of 10 µM 2-(phosphonomethyl)pentanedioic acid to distinguish between specific and nonspecific uptake.
FIGURE 1. In vitro assessment in LNCaP cells after 1 h at 37°C. (A) Competition binding activity curves of ^natCu-DOTAGA-PSMA-I&T, ^natCu-NODAGA-PSMA-I&T, and ^natGa-PSMA-11 on LNCaP cells after 1 h of incubation on ice, using ((S)-1-carboxy-5-(4-(-^125I-iodo-benzamido)pentyl)carbamoyl)-L-glutamic acid ([^125I-BA]KuE) at concentration of 0.2 nM as reference radioligand. (B) Cellular uptake (surface-bound + internalized). Cell surface–bound and internalized fractions are indicated. Results represent mean ± SD of specific (total − nonspecific) uptake from minimum of 2 separate experiments, each in triplicate.

LNCaP xenografts = assay: Biodistribution in LNCaP xenografts; format: in vivo, mice
Protocol: All animal experiments were conducted in accordance with Swiss animal welfare laws and regulations under license number 30515 granted by the Veterinary Office, Department of Health, Canton Basel-Stadt, Switzerland. Male athymic nude-Foxn1^nu/Foxn1^+ mice (Envigo), 4–6 wk old, were inoculated subcutaneously on the shoulder with 10^7 LNCaP cells, freshly suspended in a 1:1 ratio of sterile minimum essential medium with basal medium Eagle and Matrigel. The tumors were allowed to grow to a volume of approximately 200 mm^3.
The biodistribution of [^61Cu]Cu-DOTAGA-PSMA-I&T and [^61Cu]Cu-NODAGA-PSMA-I&T (100 µL/200 pmol/2–3 MBq) was compared with that of [^68Ga]Ga-DOTAGA-PSMA-I&T, [^68Ga]Ga-NODAGA-PSMA-I&T, and [^68Ga]Ga-PSMA-11 (100 µL/200 pmol/3–5 MBq), as well as [^18F]PSMA-1007 (100 µL/70 pmol/15 MBq). This comparison was conducted at 1 h after injection for all radiotracers and at 4 h after injection for the ^61Cu-labeled tracers and [^18F]PSMA-1007. The specificity of the ^61Cu-labeled tracers was assessed at 1 h after injection by blocking studies with 2-(phosphonomethyl)pentanedioic acid (100 µL/1.3 µmol) being injected 3–5 min before the injection of the radiotracer.

[1] = tested on: patient with metastatic prostate cancer; assay: First-in-human PET/CT imaging; format: in vivo; settings: 105 MBq/32 µg i.v., 3 h after tracer administration
Protocol: [^61Cu]Cu-NODAGA-PSMA-I&T was produced at the Nuclear Medicine Department of the Klinikum Rechts der Isar (Technical University of Munich) for human use. It was applied according to §13.2b of the German pharmaceutical law, and the requirement to obtain consent for the retrospective data analysis was waived. The manufacture of the tracer was performed via an automated process through a GE Healthcare FASTlab 2 module. Details on the production and quality controls are described in the supplemental materials. A dose of 105 MBq/32 µg was administered intravenously to a patient with known metastatic prostate cancer before ^177Lu-labeled PSMA radiopharmaceutical therapy. The patient was coinjected with 10 mg of furosemide (Lasix; Sanofi-Aventis). Imaging was performed 3 h after tracer administration on a Biograph Vision PET/CT scanner (Siemens Healthineers). Images were obtained from the skull to mid-thigh and reconstructed into multiplanar PET, CT, and fused PET/CT images. CT was used for attenuation correction.
FIGURE 4. Administration of [^61Cu]Cu-NODAGA-PSMA-I&T, in person with metastatic castration-resistant prostate cancer with disease progression, after abiraterone and docetaxel therapy before ^177Lu-labeled PSMA radiopharmaceutical therapy. Imaging was performed 3 h after tracer administration. […] Patient has also 1 kidney after left nephrectomy.

[2] = 1 h after injection, blocking with 2-(phosphonomethyl)pentanedioic acid 1.3 µmol

## O=C([O-])CN1CCN(CC(=O)[O-])CCN(C(CCC(=O)N[C@H](Cc2ccc(O)c(I)c2)C(=O)N[C@H](Cc2ccccc2)C(=O)N[C@H](CCCCNC(=O)CCCCCCC(=O)NCCCC[C@H](NC(=O)N[C@@H](CCC(=O)O)C(=O)O)C(=O)O)C(=O)O)C(=O)O)CC1.[61Cu+2] (stereo partly drawn) [[^61Cu]Cu-NODAGA-PSMA-I&T, NODAGA-(l-y)fk(sub-KuE)]
LNCaP cells; specific uptake
  Cellular uptake (surface-bound + internalized): 22.4% ± 3.3%
LNCaP cells; % of applied activity
  Internalized fraction: 11.7 ± 1.6%
  Surface-bound fraction: 10.8 ± 1.8%
LNCaP xenografts; 1 h after injection
  Biodistribution, Adrenals: 17.3 ± 3.26 %IA/g
  Biodistribution, Blood: 0.28 ± 0.06 %IA/g
  Biodistribution, Femur: 2.73 ± 0.91 %IA/g
  Biodistribution, Heart: 0.45 ± 0.15 %IA/g
  Biodistribution, Intestine: 2.11 ± 0.78 %IA/g
  Biodistribution, Kidneys: 118 ± 13 %IA/g
  Biodistribution, Liver: 1.02 ± 0.28 %IA/g
  Biodistribution, Lung: 1.69 ± 0.45 %IA/g
  Biodistribution, Muscles: 1.12 ± 0.32 %IA/g
  Biodistribution, Pancreas: 0.97 ± 0.36 %IA/g
  Biodistribution, Salivary glands: 2.01 ± 0.33 %IA/g
  Biodistribution, Spleen: 6.04 ± 1.87 %IA/g
  Biodistribution, Stomach: 1.13 ± 0.20 %IA/g
  Biodistribution, Tumor (tumor uptake): 14.0 ± 5.0 %IA/g
  Tumor-to-Adrenals ratio: 0.92 ± 0.20
  Tumor-to-Blood ratio: 55.8 ± 20.0
  Tumor-to-Intestine ratio: 7.87 ± 2.93
  Tumor-to-Kidneys ratio: 0.13 ± 0.03
  Tumor-to-Liver ratio: 14.9 ± 4.9
  Tumor-to-Muscles ratio: 13.6 ± 3.75
  Tumor-to-Salivary glands ratio: 7.83 ± 3.16
  Tumor-to-Spleen ratio: 2.86 ± 1.37
LNCaP xenografts; [2]
  Biodistribution, Adrenals: 0.95 ± 0.16 %IA/g
  Biodistribution, Blood: 0.19 ± 0.01 %IA/g
  Biodistribution, Femur: 0.39 ± 0.24 %IA/g
  Biodistribution, Heart: 0.33 ± 0.03 %IA/g
  Biodistribution, Intestine: 0.87 ± 0.10 %IA/g
  Biodistribution, Kidneys: 4.59 ± 0.35 %IA/g
  Biodistribution, Liver: 1.29 ± 0.21 %IA/g
  Biodistribution, Lung: 0.67 ± 0.06 %IA/g
  Biodistribution, Muscles: 0.32 ± 0.06 %IA/g
  Biodistribution, Pancreas: 0.28 ± 0.17 %IA/g
  Biodistribution, Salivary glands: 0.51 ± 0.20 %IA/g
  Biodistribution, Spleen: 0.33 ± 0.08 %IA/g
  Biodistribution, Stomach: 0.62 ± 0.04 %IA/g
  Biodistribution, Tumor: 0.68 ± 0.55 %IA/g
LNCaP xenografts; 4 h after injection
  Biodistribution, Adrenals: 8.32 ± 2.87 %IA/g
  Biodistribution, Blood: 0.10 ± 0.03 %IA/g
  Biodistribution, Femur: 1.34 ± 0.48 %IA/g
  Biodistribution, Heart: 0.22 ± 0.05 %IA/g
  Biodistribution, Intestine: 1.06 ± 0.50 %IA/g
  Biodistribution, Kidneys: 90.9 ± 10.1 %IA/g
  Biodistribution, Liver: 0.72 ± 0.11 %IA/g
  Biodistribution, Lung: 0.74 ± 0.19 %IA/g
  Biodistribution, Muscles: 0.50 ± 0.22 %IA/g
  Biodistribution, Pancreas: 0.45 ± 0.09 %IA/g
  Biodistribution, Salivary glands: 0.52 ± 0.06 %IA/g
  Biodistribution, Spleen: 1.28 ± 0.39 %IA/g
  Biodistribution, Stomach: 0.66 ± 0.15 %IA/g
  Biodistribution, Tumor (tumor uptake): 10.7 ± 3.3 %IA/g
  Tumor-to-Adrenals ratio: 1.44 ± 0.65
  Tumor-to-Blood ratio: 109 ± 43
  Tumor-to-Intestine ratio: 12.5 ± 6.7
  Tumor-to-Kidneys ratio: 0.12 ± 0.03
  Tumor-to-Liver ratio: 15.4 ± 5.7
  Tumor-to-Muscles ratio: 25.4 ± 12.0
  Tumor-to-Salivary glands ratio: 19.5 ± 7.1
  Tumor-to-Spleen ratio: 9.16 ± 3.84
[1]
  SUVmax, kidney (right): 57.3
  SUVmax, liver: 6.5
  SUVmax, salivary gland (right parotid gland): 20.5
  SUVmax, tumor lesion left liver lobe: 23.6
  SUVmax, tumor lesion right lower pubic bone: 154.2
  SUVmax, tumor lesion right scapula: 86.4
  SUVmax, tumor lesion sacral bone: 16.5
  SUVmean, kidney (right): 37.9
  SUVmean, liver: 3.4
  SUVmean, salivary gland (right parotid gland): 12.6
  SUVmean, tumor lesion left liver lobe: 11.7
  SUVmean, tumor lesion right lower pubic bone: 83.7
  SUVmean, tumor lesion right scapula: 55.3
  SUVmean, tumor lesion sacral bone: 9.9

Source: PMC11372264, “^61Cu-PSMA–Targeted PET for Prostate Cancer: From Radiotracer Development to First-in-Human Imaging” (Journal of Nuclear Medicine, 2024)
